Measured values taken from patent US9833497B2, “Human originated EGF domain proteins and use of the same” (CHENGDU SOURCEBIO LIMITED-LIABILITY COMPANY, priority 2013, dated 2017).

Experiments:
Assay type in all cases: cell-based
E. coli DH5α = experiment: Antibacterial activity: MIC and growth curve against E. coli DH5α in 96-well plate; settings: minimal inhibitory concentration against E. coli DH5α; 96-well plate, 5×10^5 CFU/mL, 37° C., judged after 8 h
Method in brief: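 Log-phase bacteria (OD600 ~0.5) resuspended in LB at 5×10^5 CFU/mL, exposed to recombinant protein at 50, 25, 12.5 μg/mL final in triplicate, 37 °C shaking at 175 rpm. OD600 read every 30 min; MIC is lowest concentration showing no growth.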

E. coli BL21 = experiment: MIC against Gram-negative bacteria: E. coli BL21; settings: for MIC / MIC (μg/mL) E. coli BL21: E. coli BL21
Method in brief: (§1)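 Bacteria grown in LB at 37° C with shaking to McFarland 0.5, pelleted and resuspended in fresh LB, then seeded at 5×10^5 CFU/mL per well. Purified recombinant human EGF domain proteins were two-fold serially diluted in triplicate and plates shaken at 37° C, 175 rpm. MIC is the lowest protein concentration with no bacterial growth.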

Pseudomonas aeruginosa = experiment: MIC against Gram-negative bacteria: Pseudomonas aeruginosa
Method in brief: as §1

Klebsiella pneumonia = experiment: MIC against Gram-negative bacteria: Klebsiella pneumonia
Method in brief: as §1

Enterobacter cloacae = experiment: MIC against Gram-negative bacteria: Enterobacter cloacae
Method in brief: as §1

Aeromonas hydrophila = experiment: MIC against Gram-negative bacteria: Aeromonas hydrophila
Method in brief: as §1

Citrobacter diversus = experiment: MIC against Gram-negative bacteria: Citrobacter diversus
Method in brief: as §1

Moraxella catarrhalis = experiment: MIC against Gram-negative bacteria: Moraxella catarrhalis
Method in brief: as §1

Proteus mirabilis = experiment: MIC against Gram-negative bacteria: Proteus mirabilis
Method in brief: as §1

Proteus vulgaris = experiment: MIC against Gram-negative bacteria: Proteus vulgaris
Method in brief: as §1

Serratia marcescens = experiment: MIC against Gram-negative bacteria: Serratia marcescens
Method in brief: as §1

[1] = P. aeruginosa, 10 h cultivation at 37° C.
[2] = K. pneumonia, 10 h cultivation at 37° C.
[3] = E. cloacae, 10 h cultivation at 37° C.
[4] = A. hydrophila, 10 h cultivation at 37° C.
[5] = C. diversus, 10 h cultivation at 37° C.
[6] = M. catarrhalis, 10 h cultivation at 37° C.
[7] = P. mirabilis, 10 h cultivation at 37° C.
[8] = P. vulgaris, 10 h cultivation at 37° C.
[9] = S. marcescens, 10 h cultivation at 37° C.
[10] = 96-well plate, 5×10^5 CFU/mL, 37° C., 10 h

Q: How did the MIC (E. coli DH5α) turn out when “PRT976 (IGVRLEQLCQAGGQCVDEDSSHYCVCPEGRTGSHCE; listed as Homo sapiens)” was run?
A: 50 µg/mL

Q: What about the MIC (E. coli BL21; 10 h cultivation at 37° C.) of the same substance?
A: 12.5 µg/mL

Q: What about the MIC (Pseudomonas aeruginosa; [1]) of the same substance?
A: 50 µg/mL

Q: What about the MIC (Klebsiella pneumonia; [2]) of the same substance?
A: 12.5 µg/mL

Q: What about the MIC (Enterobacter cloacae; [3]) of the same substance?
A: 50 µg/mL

Q: And the MIC (Aeromonas hydrophila; [4])?
A: 12.5 µg/mL

Q: What about the MIC (Citrobacter diversus; [5]) of the same substance?
A: 25 µg/mL

Q: And the MIC (Moraxella catarrhalis; [6])?
A: 25 µg/mL

Q: And the MIC (Proteus mirabilis; [7])?
A: 50 µg/mL

Q: What about the MIC (Proteus vulgaris; [8]) of the same substance?
A: 25 µg/mL

Q: And the MIC (Serratia marcescens; [9])?
A: 25 µg/mL

Q: Which results are given for “PRT921 (NIDDCASAACFHGATCHDRVASFYCECPHGRTGLLCH; listed as Homo sapiens)”?
A: MIC (E. coli DH5α): 12.5 µg/mL; MIC (E. coli BL21; 10 h cultivation at 37° C.): 12.5 µg/mL; MIC (Pseudomonas aeruginosa; [1]): 25 µg/mL; MIC (Klebsiella pneumonia; [2]): 12.5 µg/mL; MIC (Enterobacter cloacae; [3]): 12.5 µg/mL; MIC (Aeromonas hydrophila; [4]): 25 µg/mL; MIC (Citrobacter diversus; [5]): 12.5 µg/mL; MIC (Moraxella catarrhalis; [6]): 25 µg/mL; MIC (Proteus mirabilis; [7]): 12.5 µg/mL; MIC (Proteus vulgaris; [8]): 25 µg/mL; MIC (Serratia marcescens; [9]): 12.5 µg/mL

Q: What does the source list for “PRT487 (SLCDLQPDFCLNDGKCDIMPGHGAICRCRVGENWWYRGKHCE; listed as Homo sapiens)”?
A: MIC (E. coli DH5α): 12.5 µg/mL; MIC against E. coli BL21 (E. coli BL21; [10]): 25 µg/mL; MIC against P. aeruginosa (Pseudomonas aeruginosa; [10]): 12.5 µg/mL; MIC against K. pneumonia (Klebsiella pneumonia; [10]): 25 µg/mL; MIC against E. cloacae (Enterobacter cloacae; [10]): 12.5 µg/mL; MIC against A. hydrophila (Aeromonas hydrophila; [10]): 25 µg/mL; MIC against C. diversus (Citrobacter diversus; [10]): 12.5 µg/mL; MIC against M. catarrhalis (Moraxella catarrhalis; [10]): 25 µg/mL; MIC against P. mirabilis (Proteus mirabilis; [10]): 12.5 µg/mL; MIC against P. vulgaris (Proteus vulgaris; [10]): 50 µg/mL; MIC against S. marcescens (Serratia marcescens; [10]): 12.5 µg/mL

Q: Which MIC (E. coli DH5α) does the source give for “PRT674 (DVDECQDPAACRPGRCVNLPGSYRCECRPPWVPGPSGRDCQ; listed as Homo sapiens)” here?
A: 12.5 µg/mL

Q: What about the “MIC E. coli BL21” value (E. coli BL21; [10]) of the same substance?
A: 25 µg/mL

Q: And the “MIC P. aeruginosa” value (Pseudomonas aeruginosa; [10])?
A: 50 µg/mL

Q: What about the “MIC K. pneumonia” value (Klebsiella pneumonia; [10]) of the same substance?
A: 25 µg/mL

Q: What about the “MIC E. cloacae” value (Enterobacter cloacae; [10]) of the same substance?
A: 12.5 µg/mL

Q: What about the “MIC A. hydrophila” value (Aeromonas hydrophila; [10]) of the same substance?
A: 50 µg/mL

Q: What about the “MIC C. diversus” value (Citrobacter diversus; [10]) of the same substance?
A: 25 µg/mL

Q: And the “MIC M. catarrhalis” value (Moraxella catarrhalis; [10])?
A: 25 µg/mL

Q: And the “MIC P. mirabilis” value (Proteus mirabilis; [10])?
A: 12.5 µg/mL

Q: And the “MIC P. vulgaris” value (Proteus vulgaris; [10])?
A: 50 µg/mL

Q: What about the “MIC S. marcescens” value (Serratia marcescens; [10]) of the same substance?
A: 25 µg/mL

Q: Which MIC (E. coli DH5α) does the source give for “PRT995 (ETNECASAPCLNHADCHDLLNGFQCICLPGFSGTRCE; listed as Homo sapiens)” here?
A: 12.5 µg/mL

Q: And the MIC (E. coli BL21; 10 h cultivation at 37° C.)?
A: 50 µg/mL

Q: And the MIC (Pseudomonas aeruginosa; [1])?
A: 12.5 µg/mL

Q: What about the MIC (Klebsiella pneumonia; [2]) of the same substance?
A: 50 µg/mL

Q: What about the MIC (Enterobacter cloacae; [3]) of the same substance?
A: 12.5 µg/mL

Q: And the MIC (Aeromonas hydrophila; [4])?
A: 50 µg/mL

Q: What about the MIC (Citrobacter diversus; [5]) of the same substance?
A: 25 µg/mL

Q: And the MIC (Moraxella catarrhalis; [6])?
A: 12.5 µg/mL

Q: And the MIC (Proteus mirabilis; [7])?
A: 25 µg/mL

Q: And the MIC (Proteus vulgaris; [8])?
A: 50 µg/mL

Q: And the MIC (Serratia marcescens; [9])?
A: 12.5 µg/mL

Q: Which results are given for “PRT249 (EAICAKPCLNGGVCVRPDQCECAPGWGGKHCH; listed as Homo sapiens)”?
A: MIC (E. coli DH5α): 25 µg/mL; MIC (μg/mL) E. coli BL21 (E. coli BL21; 10 h cultivation at 37° C., 5×10^5 CFU/mL): 12.5 µg/mL; MIC (μg/mL) P. aeruginosa (Pseudomonas aeruginosa; P. aeruginosa, 10 h cultivation at 37° C., 5×10^5 CFU/mL): 12.5 µg/mL; MIC (μg/mL) K. pneumonia (Klebsiella pneumonia; K. pneumonia, 10 h cultivation at 37° C., 5×10^5 CFU/mL): 12.5 µg/mL; MIC (μg/mL) E. cloacae (Enterobacter cloacae; E. cloacae, 10 h cultivation at 37° C., 5×10^5 CFU/mL): 25 µg/mL; MIC (μg/mL) A. hydrophila (Aeromonas hydrophila; A. hydrophila, 10 h cultivation at 37° C., 5×10^5 CFU/mL): 12.5 µg/mL; MIC (μg/mL) C. diversus (Citrobacter diversus; C. diversus, 10 h cultivation at 37° C., 5×10^5 CFU/mL): 25 µg/mL; MIC (μg/mL) M. catarrhalis (Moraxella catarrhalis; M. catarrhalis, 10 h cultivation at 37° C., 5×10^5 CFU/mL): 12.5 µg/mL; MIC (μg/mL) P. mirabilis (Proteus mirabilis; P. mirabilis, 10 h cultivation at 37° C., 5×10^5 CFU/mL): 12.5 µg/mL; MIC (μg/mL) P. vulgaris (Proteus vulgaris; P. vulgaris, 10 h cultivation at 37° C., 5×10^5 CFU/mL): 12.5 µg/mL; MIC (μg/mL) S. marcescens (Serratia marcescens; S. marcescens, 10 h cultivation at 37° C., 5×10^5 CFU/mL): 12.5 µg/mL

Q: “PRT119 (CAPCPNNGRPTLSGTECLCVCQSGTYGENCE; listed as Homo sapiens)” was tested. Which MIC (E. coli DH5α) did it give?
A: 12.5 µg/mL

Q: What about the “MIC (μg/mL) E. coli BL21” value (E. coli BL21; [10]) of the same substance?
A: 50 µg/mL

Q: What about the “MIC (μg/mL) P. aeruginosa” value (Pseudomonas aeruginosa; Pseudomonas aeruginosa, 96-well plate, 5×10^5 CFU/mL, 37° C., 10 h) of the same substance?
A: 12.5 µg/mL

Q: And the “MIC (μg/mL) K. pneumonia” value (Klebsiella pneumonia; Klebsiella pneumonia, 96-well plate, 5×10^5 CFU/mL, 37° C., 10 h)?
A: 50 µg/mL

Q: And the “MIC (μg/mL) E. cloacae” value (Enterobacter cloacae; Enterobacter cloacae, 96-well plate, 5×10^5 CFU/mL, 37° C., 10 h)?
A: 25 µg/mL

Q: And the “MIC (μg/mL) A. hydrophila” value (Aeromonas hydrophila; Aeromonas hydrophila, 96-well plate, 5×10^5 CFU/mL, 37° C., 10 h)?
A: 12.5 µg/mL

Q: And the “MIC (μg/mL) C. diversus” value (Citrobacter diversus; Citrobacter diversus, 96-well plate, 5×10^5 CFU/mL, 37° C., 10 h)?
A: 25 µg/mL

Q: And the “MIC (μg/mL) M. catarrhalis” value (Moraxella catarrhalis; Moraxella catarrhalis, 96-well plate, 5×10^5 CFU/mL, 37° C., 10 h)?
A: 50 µg/mL

Q: And the “MIC (μg/mL) P. mirabilis” value (Proteus mirabilis; Proteus mirabilis, 96-well plate, 5×10^5 CFU/mL, 37° C., 10 h)?
A: 25 µg/mL

Q: And the “MIC (μg/mL) P. vulgaris” value (Proteus vulgaris; Proteus vulgaris, 96-well plate, 5×10^5 CFU/mL, 37° C., 10 h)?
A: 12.5 µg/mL

Q: What about the “MIC (μg/mL) S. marcescens” value (Serratia marcescens; Serratia marcescens, 96-well plate, 5×10^5 CFU/mL, 37° C., 10 h) of the same substance?
A: 12.5 µg/mL
